Where two headings read alike, the source gives them in different places.

In general, IC50 refers to the point on the concentration scale where inhibition reaches its midpoint.

Test [1] addresses His-GST-TVMV-hRIPK1(1-324) (Homo sapiens (Human), UniProt Q13546). Description: RIPK1 HTRF Binding Assay. The conditions noted are these: HTRF binding, 1 h at rt; read-out: RIPK1 (IC50). The procedure, abridged: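 HTRF probe-displacement binding: 1 nM His-GST-TVMV-hRIPK1(1-324) (baculovirus construct), 90.6 nM probe, 0.2 nM anti-GST-Tb in 20 mM HEPES, 10 mM MgCl2, 0.015% Brij-35, 4 mM DTT, 0.05 mg/mL BSA. Incubated 1 h at rt; FRET 520/495 nm ratio, inhibition relative to DMSO-only wells.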
(In general: Time-resolved FRET reads energy transfer from a long-lived donor to a nearby acceptor.)

The test system of test [2] is MLKL phosphorylation in HT29-L23 human colorectal adenocarcinoma cells. Description: MLKL Phosphorylation High-Content Assay. The following applies: 6 h, necroptosis induced with TNFα, SMAC mimetic and Z-VAD, read-out: pMLKL (IC50). The format is cell-based. In a few lines:
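HT29-L23 cells pretreated 30 min at 37 °C with compound (6.25 to 0.106 μM final), then necroptosis induced with TNFα 35 ng/mL, SMAC mimetic 700 nM and Z-VAD 140 nM for 6 h. Fixed cells immunostained for MLKL pS358 and imaged; IC50 and Ymax from 4-parameter logistic fit.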

Sequence of His-GST-TVMV-hRIPK1(1-324) (Q13546 1-324): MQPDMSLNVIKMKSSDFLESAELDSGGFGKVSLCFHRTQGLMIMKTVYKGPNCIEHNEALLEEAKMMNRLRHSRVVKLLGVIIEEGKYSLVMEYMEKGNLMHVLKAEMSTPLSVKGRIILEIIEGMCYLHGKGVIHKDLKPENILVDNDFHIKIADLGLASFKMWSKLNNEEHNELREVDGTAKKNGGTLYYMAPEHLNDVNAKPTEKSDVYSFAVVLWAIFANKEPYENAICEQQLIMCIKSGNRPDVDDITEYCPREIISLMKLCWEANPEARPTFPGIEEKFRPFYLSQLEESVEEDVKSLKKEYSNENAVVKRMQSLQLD

On to `COc1nc(C)c(-c2ccc3nc(NC(C)=O)cn3n2)cc1C(=O)N(C)Cc1ccccc1OC(F)(F)F` [Example 283, 5-{2-acetamidoimidazo[1,2-b]pyridazin-6-yl}-2-methoxy-N,6-dimethyl-N-{[2-(trifluoromethoxy)phenyl]methyl}pyridine-3-carboxamide], for which the IC50 amounted to 16 nM in test [1] and 67 nM in test [2] (Homo sapiens).

On to `COc1nc(C)c(-c2ccc3nc(NC(C)=O)cn3n2)cc1C(=O)NCc1cc(F)c(F)cc1OCC1CC1` [Example 284, N-{[2-(cyclopropylmethoxy)-4,5-difluorophenyl]methyl}-5-{2-acetamidoimidazo[1,2-b]pyridazin-6-yl}-2-methoxy-6-methylpyridine-3-carboxamide], for which the IC50 in test [1] and in test [2] (Homo sapiens) was 5 nM each time.

Turning to `COc1nc(C)c(-c2ccc3nc(NC(C)=O)cn3n2)cc1C(=O)NCc1c(F)ccc(F)c1OC` [Example 285, N-[(3,6-difluoro-2-methoxyphenyl)methyl]-5-{2-acetamidoimidazo[1,2-b]pyridazin-6-yl}-2-methoxy-6-methylpyridine-3-carboxamide], the IC50 in test [1] stood at 17 nM; in test [2] (Homo sapiens), 23 nM.

In the case of `COc1nc(C)c(-c2ccc3nc(NC(C)=O)cn3n2)cc1C(=O)NCc1ccc(F)c(F)c1OCC1CC1` [Example 286, N-{[2-(cyclopropylmethoxy)-3,4-difluorophenyl]methyl}-5-{2-acelamidoimidazo[1,2-b]pyridazin-6-yl}-2-methoxy-6-methylpyridine-3-carboxamide], the IC50 in test [1] turned out to be 9 nM; in test [2], 19 nM.

Regarding `COc1nc(C)c(-c2ccc3nc(NC(C)=O)cn3n2)cc1C(=O)NCc1cc(F)cc(F)c1OCC1CC1` [Example 287, N-{[2-(cyclopropylmethoxy)-3,5-difluorophenyl](deutero)methyl}-5-{2-acetamidoimidazo[1,2-b]pyridazin-6-yl}-2-methoxy-6-methylpyridine-3-carboxamide], the IC50 in test [1] amounted to 4 nM; in test [2] it was 2 nM.

Take `COc1nc(C)c(-c2ccc3nc(NC(C)=O)cn3n2)cc1C(=O)NCc1cccc(F)c1OCC1CCC1` [Example 288, N-{[2-(cyclobutylmethoxy)-3-fluorophenyl]methyl}-5-{2-acetamidoimidazo[1,2-b]pyridazin-6-yl}-2-methoxy-6-methylpyridine-3-carboxamide]: the IC50 in test [1] came to 6 nM; in test [2] (Homo sapiens), 1 nM.

As for `COc1nc(C)c(-c2ccc3nc(NC(C)=O)cn3n2)cc1C(=O)NC(C)c1cccc(OC(F)(F)F)c1` (stereo not drawn) [Example 289, 5-{2-acetamidoimidazo[1,2-b]pyridazin-6-yl}-2-methoxy-6-methyl-N-{1-[3-(trifluoromethoxy)phenyl]ethyl}pyridine-3-carboxamide], the IC50 in test [1] and in test [2] was 16 nM each time.

For the compound `COc1nc(C)c(-c2ccc3nc(NC(C)=O)cn3n2)cc1C(=O)NC(C)c1ccccc1OC(F)(F)F` (stereo not drawn) [Example 290, 5-{2-acetamidoimidazo[1,2-b]pyridazin-6-yl}-2-methoxy-6-methyl-N-{1-[2-(trifluoromethoxy)phenyl]ethyl}pyridine-3-carboxamide], the figures for the IC50 in test [1] and in test [2] were 7 nM and 3 nM, respectively.

Regarding `COc1nc(C)c(-c2ccc3nc(NC(C)=O)cn3n2)cc1C(=O)NC(C)c1ccccc1OC(F)(F)F` (stereo not drawn) [Example 291, 5-{2-acetamidoimidazo[1,2-b]pyridazin-6-yl}-2-methoxy-6-methyl-N-{1-[2-(trifluoromethoxy)phenyl]ethyl}pyridine-3-carboxamide], the 50% inhibitory concentration (IC50) in test [1] was more than 5000 nM; in test [2], more than 6250 nM.

For the compound `COc1nc(C)c(-c2ccc3nc(NC(C)=O)cn3n2)cc1C(=O)NC(C)c1cccc(OC(F)(F)F)c1` (stereo not drawn) [Example 292, 5-{2-acetamidoimidazo[1,2-b]pyridazin-6-yl}-2-methoxy-6-methyl-N-{1-[3-(trifluoromethoxy)phenyl]ethyl}pyridine-3-carboxamide], the IC50 in test [1] stood at 24 nM; in test [2], 37 nM.

For the compound `COc1nc(C)c(-c2ccc3nc(NC(C)=O)cn3n2)cc1C(=O)NCc1cc(F)cc(C(F)(F)F)c1` [Example 293, 5-{2-acetamidoimidazo[1,2-b]pyridazin-6-yl}-N-{[3-fluoro-5-(trifluoromethyl)phenyl]methyl}-2-methoxy-6-methylpyridine-3-carboxamide], the IC50 in test [1] is 33 nM; in test [2] (Homo sapiens), 135 nM.

As to `COc1nc(C)c(-c2ccc3nc(NC(C)=O)cn3n2)cc1C(=O)NCc1cc(F)cc(F)c1OCC1CCC1` [Example 294, N-{[2-(cyclobutylmethoxy)-3,5-difluorophenyl]methyl}-5-{2-acetamidoimidazo[1,2-b]pyridazin-6-yl}-2-methoxy-6-methylpyridine-3-carboxamide], the values for the concentration for half-maximal inhibition (IC50) in test [1] and in test [2] (Homo sapiens) were 10 nM and 3 nM, respectively.

In the case of `COc1nc(C)c(-c2ccc3nc(NC(C)=O)cn3n2)cc1C(=O)NCc1cc(C(F)(F)F)ccc1F` [Example 296, 5-{2-acetamidoimidazo[1,2-b]pyridazin-6-yl}-N-{[2-fluoro-5-(trifluoromethyl)phenyl]methyl}-2-methoxy-6-methylpyridine-3-carboxamide], the IC50 in test [1] worked out at 10 nM; in test [2] (Homo sapiens), 20 nM.

In the case of `COc1nc(C)c(-c2ccc3nc(NC(C)=O)cn3n2)cc1C(=O)NCc1cc(OCC2CC2)ccc1F` [Example 297, N-{[5-(cyclopropylmethoxy)-2-fluorophenyl]methyl}-5-{2-acetamidoimidazo[1,2-b]pyridazin-6-yl}-2-methoxy-6-methylpyridine-3-carboxamide], the IC50 in test [1] was 11 nM; in test [2] (Homo sapiens), 36 nM.

As to `COc1nc(C)c(-c2ccc3nc(NC(C)=O)cn3n2)cc1C(=O)NCc1c(F)cc(F)cc1OCC1CC1` [Example 298, N-{[2-(cyclopropylmethoxy)-4,6-difluorophenyl]methyl}-5-{2-acetamidoimidazo[1,2-b]pyridazin-6-yl}-2-methoxy-6-methylpyridine-3-carboxamide], the 50% inhibitory concentration (IC50) in test [1] came to 43 nM; in test [2] (Homo sapiens), 79 nM.

In the case of `COc1nc(C)c(-c2ccc3nc(NC(C)=O)cn3n2)cc1C(=O)NCc1cccc(F)c1OCC1CC1` [Example 299, N-{[2-(cyclopropylmethoxy)-3-fluorophenyl]methyl}-5-{2-acetamidoimidazo[1,2-b]pyridazin-6-yl}-2-methoxy-6-methylpyridine-3-carboxamide], the concentration for half-maximal inhibition (IC50) in test [1] came to 4 nM; in test [2] (Homo sapiens) it was 1 nM.

As to `COc1nc(C)c(-c2ccc3nc(NC(C)=O)cn3n2)cc1C(=O)NCc1cc(F)cc(F)c1OCC1CC1` [Example 300, N-{[2-(cyclopropylmethoxy)-3,5-difluorophenyl]methyl}-5-{2-acetamidoimidazo[1,2-b]pyridazin-6-yl}-2-methoxy-6-methylpyridine-3-carboxamide], the IC50 in test [1] is 4 nM; in test [2] (Homo sapiens), 76 nM.

In the case of `COc1nc(C)c(-c2ccc3nc(NC(C)=O)cn3n2)cc1C(=O)NCC[C@H](O)c1ccc(Cl)cc1` [Example 301, N-[(3S)-3-(4-chlorophenyl)-3-hydroxypropyl]-5-{2-acetamidoimidazo[1,2-b]pyridazin-6-yl}-2-methoxy-6-methylpyridine-3-carboxamide], the concentration for half-maximal inhibition (IC50) in test [1] is 25 nM; in test [2] (Homo sapiens), 22 nM.

As for `COc1nc(C)c(-c2ccc3nc(NC(C)=O)cn3n2)cc1C(=O)NCc1ccccc1OC(C)C1CCCC1` (stereo not drawn) [Example 302, N-{[2-(1-cyclopentylethoxy)phenyl]methyl}-5-{2-acetamidoimidazo[1,2-b]pyridazin-6-yl}-2-methoxy-6-methylpyridine-3-carboxamide], the IC50 is 25 nM in test [1] and 16 nM in test [2].

With `COc1nc(C)c(-c2ccc3nc(NC(C)=O)cn3n2)cc1C(=O)NCc1ccccc1OC(C)C1CCCC1` (stereo not drawn) [Example 303, N-{[2-(1-cyclopentylethoxy)phenyl]methyl}-5-{2-acetamidoimidazo[1,2-b]pyridazin-6-yl}-2-methoxy-6-methylpyridine-3-carboxamide], the results for the IC50 in test [1] and in test [2] were 22 nM and 43 nM, respectively.

Consider `COc1nc(C)c(-c2ccc3nc(NC(C)=O)cn3n2)cc1C(=O)NCCc1cccc(OC(F)(F)F)c1` [Example 304, 5-{2-acetamidoimidazo[1,2-b]pyridazin-6-yl}-2-methoxy-6-methyl-N-{2-[3-(trifluoromethoxy)phenyl]ethyl}pyridine-3-carboxamide], for which the IC50 was 206 nM in test [1] and 67 nM in test [2] (Homo sapiens).

In the case of `COc1nc(C)c(-c2ccc3nc(NC(C)=O)cn3n2)cc1C(=O)NCc1cccc(C(F)(F)F)c1` [Example 305, 5-{2-acetamidoimidazo[1,2-b]pyridazin-6-yl}-2-methoxy-6-methyl-N-{[3-(trifluoromethyl)phenyl]methyl}pyridine-3-carboxamide], the results for the IC50 in test [1] and in test [2] (Homo sapiens) were 41 nM and 77 nM, respectively.

`COc1nc(C)c(-c2ccc3nc(NC(C)=O)cn3n2)cc1C(=O)NCc1ccccc1OC1CCOC1` (stereo not drawn) [Example 306, 5-{2-acetamidoimidazo[1,2-b]pyridazin-6-yl}-2-methoxy-6-methyl-N-{[2-(oxolan-3-yloxy)phenyl]methyl}pyridine-3-carboxamide]: the IC50 was found to be 5 nM in test [1] and 6 nM in test [2] (Homo sapiens).

As for `COc1nc(C)c(-c2ccc3nc(NC(C)=O)cn3n2)cc1C(=O)NCc1ccccc1OC1CCOC1` (stereo not drawn) [Example 307, 5-{2-acetamidoimidazo[1,2-b]pyridazin-6-yl}-2-methoxy-6-methyl-N-{[2-(oxolan-3-yloxy)phenyl]methyl}pyridine-3-carboxamide], the IC50 was 11 nM in test [1] and 5 nM in test [2].

The values are drawn from patent US11440913B2, “Aminoimidazopyridazines as kinase inhibitors” (BRISTOL-MYERS SQUIBB COMPANY, priority 2017, dated 2022).
